{"source": "patent US20190365784A1", "about": "“USE OF BRASSINOSTEROID ANALOGS FOR THE TREATMENT OF DERMAL DISORDERS BY SELECTIVELY MODULATING LIVER X RECEPTORS (LXR) AND DERMAL DISEASE TREATMENT BY BRASSINOSTEROID ANALOGS ACTING AS SELECTIVE LIVER X RECEPTOR (LXR) MODULATORS” (CONSEJO NACIONAL DE INVESTIGACIONES CIENTÍFICAS Y TÉCNICAS …, priority 2015, published 2019)", "key": {"LXR-alpha": {"target": "T1, LXR-alpha (Homo sapiens, UniProt Q13133)", "T1 sequence (Q13133 1-447)": "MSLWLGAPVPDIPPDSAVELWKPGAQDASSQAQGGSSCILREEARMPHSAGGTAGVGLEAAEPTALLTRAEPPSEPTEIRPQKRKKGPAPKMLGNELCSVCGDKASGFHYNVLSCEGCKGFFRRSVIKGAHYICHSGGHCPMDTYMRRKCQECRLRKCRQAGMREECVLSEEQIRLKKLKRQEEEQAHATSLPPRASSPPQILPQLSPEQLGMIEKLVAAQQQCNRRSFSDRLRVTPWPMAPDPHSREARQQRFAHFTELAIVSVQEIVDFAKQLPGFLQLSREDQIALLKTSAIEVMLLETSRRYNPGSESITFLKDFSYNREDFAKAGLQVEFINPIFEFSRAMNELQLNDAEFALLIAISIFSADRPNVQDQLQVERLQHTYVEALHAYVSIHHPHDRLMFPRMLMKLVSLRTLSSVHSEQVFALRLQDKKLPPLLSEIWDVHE", "T1 sequence (P19793 1-462 partner)": "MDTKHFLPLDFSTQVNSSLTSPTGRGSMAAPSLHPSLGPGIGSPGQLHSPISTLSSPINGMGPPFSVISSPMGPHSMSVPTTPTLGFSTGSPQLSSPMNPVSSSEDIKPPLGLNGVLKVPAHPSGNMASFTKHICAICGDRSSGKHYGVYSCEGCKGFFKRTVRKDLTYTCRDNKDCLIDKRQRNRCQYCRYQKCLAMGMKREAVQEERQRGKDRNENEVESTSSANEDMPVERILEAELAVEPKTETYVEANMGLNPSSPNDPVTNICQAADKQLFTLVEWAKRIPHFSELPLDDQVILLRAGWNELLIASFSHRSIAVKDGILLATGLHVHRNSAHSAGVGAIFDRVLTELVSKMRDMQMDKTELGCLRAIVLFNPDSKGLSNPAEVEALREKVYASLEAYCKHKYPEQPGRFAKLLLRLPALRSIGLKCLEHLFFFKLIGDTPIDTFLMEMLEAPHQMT", "assay": "LXR-alpha/RXR LRE-luciferase reporter in transfected HEK293T cells", "format": "cell-based", "details": "10 uM, 18 h", "text": "Since we had previously shown that the beneficial effects of the compounds of the invention are independent of glucocorticoid receptor (GR) activation, we set forth to investigate if they might exert their actions through activation of liver X receptors (LXR). For this purpose we used cultured cells transiently transfected with LXR-alpha, the retinoid X receptor (RXR) and a LXR response element-luciferase reporter (LRE-LUC). A. Human embryonic kidney cells (HEK293T; 5×10^5 cells/well) were cultured in DMEM medium supplemented with 10% (v/v) fetal bovine serum, 100 ug/ml of streptomycin, 100 IU/ml of penicillin and 2 mM glutamine. For the transient transfections, the cell cultures were added with plasmids carrying LXR-alpha (pLXR-alpha; 0.6 ug), the retinoid X receptor (pRXR; 0.2 ug), a LXR response element-luciferase reporter (pRE-LUC; 0.7 ug) and beta-galactosidase gene (pRSV-LacZ; 0.6 ug) as a transfection control, using Lipofectamine 2000 (Invitrogen). […] Compounds III to VI are […] analogs bearing a fluorine atom at C-6. To assess LXR-alpha activation, at the end of the incubation period luciferase activity was measured by use of a luciferase assay system (Promega). The results of three independent assays, carried out in duplicate for each condition, are reported."}, "[1]": {"assay": "Liver weight and gross morphology (hepatic steatosis) in C57BI mice after 5 days i.p. treatment", "format": "in vivo", "details": "male C57BI mice, T0901317 5 mg/kg i.p. daily for 5 days", "experimental": "(§1) Administration of synthetic LXR agonists such as T0901317 induces a marked increment of liver lipogenesis that leads to hepatic steatosis and plasma hypertriglyceridemia.\n(§2) Male C57BI mice received daily for 5 days intraperitoneal injections containing either 10 mg Compound I/kg, or 5 mg T0901317/kg, or vehicle [90% (v/v) DMSO in apyrogenic sterile water]. On the sixth day of the assay, the animals were fasted for 4 h before decapitation. Blood plasma was obtained for the determination of total cholesterol, HDL-cholesterol and triglyceride contents. The livers were resected, and their weights and colors used as gross markers of increased liver triglyceride contents."}, "[2]": {"assay": "Plasma total cholesterol, HDL-cholesterol and triglyceride in C57BI mice after 5 days i.p. treatment", "format": "in vivo", "details": "male C57BI mice; T0901317 5 mg/kg i.p. daily for 5 days", "experimental": "as §1, §2"}, "[3]": {"system": "imiquimod-induced skin lesions", "assay": "Imiquimod-induced psoriasis model in mice: clinical signs and dorsal skin histopathology", "format": "in vivo", "parameters": "key to Hyperkeratosis, protective effect / Epidermal serocellular crust, protective effect / Acanthosis, protective effect / Dermal inflammatory infiltrates, protective effect: the (+) sign represents the presence of a protective effect; a (−) sign represents the absence of protective effect", "text": "To test whether Compound I might ameliorate the signs of psoriasis, we topically administered Compound I to imiquimod-induced skin lesions in mice. The imiquimod mouse model of psoriasis-like skin inflammation is characterized by lesions that show augmented epidermal cell proliferation, abnormal keratinocyte differentiation, neutrophil accumulation in epidermal microabcesses, and neoangiogenesis.\nFor this study, thirty two 8-week old female Balbc/J mice were housed […] in positively ventilated polysulfonate cages with HEPA filtered air at a density of 4 mice per cage. The animal room was lighted entirely with artificial fluorescent lighting, with a controlled 12 h light/dark cycle (6 am to 6 pm light). The normal temperature and relative humidity ranges in the animal rooms were 22±4° C. and 50±15%, respectively. The animal rooms were set to have a minimum of 15 air exchanges per hour. Filtered tap water, acidified to a pH of 2.5 to 3.0, and standard rodent chow were provided ad libitum. After 1 week of acclimation mice were randomized into 4 groups (n=8/each) as shown below (Table 1).\n1. IMQ induction: On day 0 all grouped mice received a topical dose of 62.5 mg of IMQ cream (5%) on the shaved back for 6 consecutive days. (Day 0 to Day 5)\n3. Mice were scored for clinical parameters of disease based on degree of erythema, scaling and thickening independently on a scale of 0-4. 0=none; 1=slight; 2=moderate; 3=moderate to severe: 4=severe. These observations were recorded on day 0, 2, 4, 6, and 8. On the same days, back skin thickness was measured with calipers.\n5. Mice were sacrificed on day 10 by CO2 asphyxiation.\n6. A part of the back skin was harvested and fixed for histology. Slides were processed, stained with H&E for histology assessment.\nDorsal skin sections were evaluated histopathologically for evidence of key features of psoriasis, such as parakeratosis, hyperkeratosis (thickening of the stratum corneum), acanthosis (diffuse thickening of the stratum spinosum of the skin), epidermal serocellular crusts, epidermal microabscesses, basilar papillae, dermal inflammatory infiltrates and dilated tortuous capillaries (Table 2. Histopathological scoring system and definition used in the Imiquimod psoriasis model)."}, "[4]": {"assay": "Body and spleen weight in imiquimod psoriasis model mice", "details": "9 days topical treatment"}, "[5]": {"details": "psoriatic mice, topical 0.05%, QD 9 days"}, "[6]": {"details": "topical 0.05%, summary of Table 3"}}, "note": "Values joined by “and” are separate entries in the source; they are usually repeats but may differ in a detail not shown here. Equal entries are not always repeated. Marks after values point to notes of the source that are not given here."}
{"compound": "CC[C@@H](C(C)C)[C@H](O)[C@@H](O)[C@@H](C)[C@H]1CC[C@H]2[C@@H]3C[C@@H](F)C4=CC(=O)CC[C@]4(C)[C@H]3CC[C@]12C", "note": "[Compound IV, (22S,23S)-6β-fluoro-22,23-dihydroxystigmast-4-en-3-one]", "values": [{"measurement": "induction of LXR-alpha driven gene expression compared with GW3965 (1 uM)", "setting": "LXR-alpha", "result": "within the same range as that observed for GW3965"}]}
{"compound": "O=S(=O)(c1ccccc1)N(CC(F)(F)F)c1ccc(C(O)(C(F)(F)F)C(F)(F)F)cc1", "note": "[Compound T0901317]", "values": [{"measurement": "liver color versus DMSO-treated mice", "setting": "[1]", "result": "paler"}, {"measurement": "liver steatosis (liver weight and color)", "setting": "[1]", "result": "induces liver steatosis"}, {"measurement": "liver weight higher than in DMSO-treated mice", "setting": "[1]; 5 mg/kg", "result": "27% and ~23%"}, {"measurement": "HDL-cholesterol plasmatic content higher than in Compound I- or Vehicle-treated mice", "setting": "[2]", "result": 50, "unit": "%"}, {"measurement": "total cholesterol plasmatic content higher than in Compound I- or Vehicle-treated mice", "setting": "[2]", "result": 50, "unit": "%"}, {"measurement": "triglyceride plasmatic content higher than in Compound I- or Vehicle-treated mice", "setting": "[2]", "result": "> 2", "unit": "times"}]}
{"compound": "CCC(=O)O[C@]1(C(=O)CCl)[C@@H](C)C[C@H]2[C@@H]3CCC4=CC(=O)C=C[C@]4(C)[C@@]3(F)[C@@H](O)C[C@@]21C", "note": "[Clobetasol, clobetasol propionate, reference compound]", "values": [{"measurement": "acanthosis reduced versus 0.1% (w/v) Compound I-treated animals", "setting": "[3]; Clobetasol-treated mice", "result": 33, "unit": "%"}, {"measurement": "dermal inflammatory infiltrates versus 0.1% (w/v) Compound I-treated animals", "setting": "[3]; Clobetasol-treated mice", "result": "absent"}, {"measurement": "back skin thickening (calipers)", "setting": "[3]; after 9 days topical, Compound I 0.05% and 0.1% (w/v), clobetasol 0.05% cream", "result": "inhibited IMQ-induced skin thickening in the back"}, {"measurement": "global response score of dorsal skin, lower than in vehicle-treated psoriatic mice", "setting": "[3]; clobetasol 0.05% topical, 9 days", "result": "~42", "unit": "%"}, {"measurement": "skin erythema (clinical score 0-4, in words)", "setting": "[3]; day 8, topical QD 9 days, both Compound I doses 0.05% and 0.1% (w/v), clobetasol 0.05% cream", "result": "absent"}, {"measurement": "scaling (clinical score 0-4, in words)", "setting": "[3]; day 8, topical QD 9 days, both Compound I doses, clobetasol 0.05% cream", "result": "absent in ⅝ mice and slight in the rest of the animals"}, {"measurement": "Acanthosis (0-4), group mean score of dorsal skin", "setting": "[3]; [5]", "result": "1.4††"}, {"measurement": "Basliar papillae (0-4), group mean score of dorsal skin", "setting": "[3]; [5]", "result": 0.0}, {"measurement": "Dermal inflammatory infiltrates (0-4), group mean score of dorsal skin", "setting": "[3]; [5]", "result": "0.0††"}, {"measurement": "Dilated tortuous capillaries (0-4), group mean score of dorsal skin", "setting": "[3]; [5]", "result": 0.0}, {"measurement": "Epidermal micro-abscesses (0-4), group mean score of dorsal skin", "setting": "[3]; [5]", "result": 0.0}, {"measurement": "Epidermal serocellular rust (0-4), group mean score of dorsal skin", "setting": "[3]; [5]", "result": 0.6}, {"measurement": "Hyperkeratosis (0-4), group mean score of dorsal skin", "setting": "[3]; [5]", "result": 1.8}, {"measurement": "Mean Global Score, dorsal skin", "setting": "[3]; [5]", "result": 3.8}, {"measurement": "Parakeratosis (0-4), group mean score of dorsal skin", "setting": "[3]; [5]", "result": 0.0}, {"measurement": "severity of microscopic alterations of back skin (histopathology)", "setting": "[3]; topical 0.05%, QD 9 days", "result": "lowest severity"}, {"measurement": "Acanthosis, protective effect", "setting": "[3]; [6]", "result": "+"}, {"measurement": "Dermal inflammatory infiltrates, protective effect", "setting": "[3]; [6]", "result": "+"}, {"measurement": "Epidermal serocellular crust, protective effect", "setting": "[3]; [6]", "result": "−"}, {"measurement": "Hyperkeratosis, protective effect", "setting": "[3]; [6]", "result": "−"}, {"measurement": "reduction of body weight compared with vehicle-treated psoriatic mice", "setting": "[4]", "result": 15, "unit": "%"}, {"measurement": "reduction of spleen weight compared with vehicle-treated psoriatic mice", "setting": "[4]", "result": 62.6, "unit": "%"}]}
{"compound": "CC[C@@H](C(C)C)[C@H](O)[C@@H](O)[C@@H](C)[C@H]1CC[C@H]2[C@@H]3C[C@@H](F)C4=CC(=O)C=C[C@]4(C)[C@H]3CC[C@]12C", "note": "[Compound VI, (22S,23S)-6β-fluoro-22,23-dihydroxystigmasta-1,4-dien-3-one]", "values": [{"measurement": "induction of LXR-alpha driven gene expression compared with GW3965 (1 uM)", "setting": "LXR-alpha", "result": "within the same range as that observed for GW3965"}]}
